Reference: patent US20230029486A1, “A METHOD FOR ENHANCING THE PHARMACOKINETICS OR INCREASING THE PLASMA CONCENTRATION OF METHYL 3-((METHYLSULFONYL)AMINO)-2-(((4-PHENYLCYCLOHEXYL)OXY)METHYL)PIPERIDINE-1-CARBOXYLATE OR A SALT THEREOF WITH AN INHIBITOR OF CYTOCHROME P450” (TAKEDA PHARMACEUTICAL COMPANY LIMITED, priority 2020, published 2023)
Where two headings read alike, the source gives them in different places.

What was measured:
[1] = tested on: rodent model of narcolepsy; details: cited from earlier work
[2] = tested on: healthy mice; details: cited from earlier work
[3] = tested on: nonhuman primates; details: cited from earlier work
[4] = intravenous single dose studies, healthy volunteers and NT1 patients; cited from earlier work
[5] = tested on: CYP3A; test: Midazolam as in vivo probe for human CYP3A activity under cobicistat; details: 0.5 mg midazolam oral with 150 mg cobicistat QD, Day 7 and Day 10, versus 1 mg midazolam alone
Method: Midazolam is a benzodiazepine derivative that is exclusively metabolized by the CYP3A enzymatic pathway and therefore, was used as an in vivo probe for human CYP3A activity.
On Day 1, subjects received 1 mg midazolam orally and pharmacokinetic (PK) blood samples for midazolam (and its metabolite 1-hydroxy (1-OH) midazolam) were collected predose and up until 24 hours postdose to establish baseline cytochrome P450 (CYP) 3A activity.
On Days 7 and 10, 0.5 mg midazolam were administered orally (30 minutes after the cobicistat dose) and PK blood for midazolam and 1-OH midazolam were collected on each of these days, predose and up until 24 hours post midazolam dosing.
Blood PK sampling for midazolam and its metabolite (1-hydroxymidazolam): • Study Day 1: predose (prior to midazolam administration), 0.5, 1, 1.5, 2, 4, 6, 8, 12 hours postdose • Study Day 2: 24 hours post Day 1 dosing and prior to start of Compound A IV infusion • Study Day 7: predose (prior to cobicistat and midazolam administration), 0.5, 1, 1.5, 2, 4, 6, 8, 12 hours post midazolam dosing • Study Day 8: 24 hours post Day 7 midazolam dosing and prior to cobicistat administration • Study Day 10: predose (prior to cobicistat and midazolam administration), 0.5, 1, 1.5, 2, 4, 6, 8, 12 hours post midazolam dosing • Study Day 11: 24 hours post Day 10 midazolam dosing and prior to cobicistat administration

[6] = Phase 1 open-label study: single-dose plasma pharmacokinetics of Compound A with and without cobicistat; format: in vivo, human; details: for DNAUCinf112 (Day 12) / DNAUClast112 (Day 12) / DNCmax112 (Day 12): 14 mg Compound A oral + MD 150 mg cobicistat; for DNAUCinf112 (Day 12) / DNAUClast112 (Day 12) / DNCmax112 (Day 12) / DNAUCi nf 112Ratio (Day 12/Day 3) / DNAUCla st 112Ratio (Day 12/Day 3) / DNCma x 112Ratio (Day 12/Day 3) / DNAUCinf112 (Day 3) / DNAUClast112 (Day 3) / DNCmax112 (Day 3): n=15; for DNAUCi nf 112Ratio (Day 12/Day 3) / DNAUCla st 112Ratio (Day 12/Day 3) / DNCma x 112Ratio (Day 12/Day 3): 14 mg oral + cobicistat versus 112 mg oral alone, dose-normalized
Text: The purpose of this study was to evaluate the effect of cobicistat on Compound A. The primary goal was to evaluate whether cobicistat can boost plasma concentrations of oral Compound A in humans and therefore, can be used in combination with Compound A as part of an oral dose regimen. The magnitude of this intentional drug-drug interaction (DDI) is also quantified. This was a non-randomized, open-label, fixed-sequence study in healthy male and female (women of non-childbearing potential [WONCBP]) subjects. […] Predose blood samples for cobicistat PK were also collected on Days 7, 9, 10, and 11. […] PK blood samples for cobicistat were collected predose on Day 12 and up until 24 hours post cobicistat dosing and at 24-hour post Day 13 cobicistat dosing. Plasma pharmacokinetic parameters of Compound A after oral administration with and without cobicistat as follows • Maximum observed concentration (Cmax). • Area under the concentration-time curve from time 0 to infinity, calculated using the observed value of the last quantifiable concentration (AUCinf). • Area under the concentration-time curve from time 0 to the time of the last quantifiable concentration (AUClast). […] Plasma pharmacokinetic parameters of Compound A after oral administration with and without cobicistat (Cmax, AUCinf and AUClast) were calculated.

[7] = Safety and tolerability of single oral dose of Compound A with and without cobicistat; format: in vivo, human; details: single oral dose of Compound A with steady state cobicistat, healthy adult subjects
Method: · To evaluate the safety and tolerability of a single oral dose of Compound A with and without cobicistat.
Safety was assessed by monitoring for adverse events (AEs), vital signs, safety 12-lead electrocardiograms (ECGs), safety laboratory assessments, pulse oximetry, C-SSRS (Columbia Suicide Severity Rating Scale), and physical examinations throughout the study.

[8] = 14 mg Compound A oral + QD 150 mg cobicistat compared to 14 mg IV alone (9-hour IV infusion)
[9] = 14 mg Compound A oral + QD 150 mg cobicistat versus 112 mg oral alone, dose-normalized to 112 mg
[10] = 112 mg Compound A oral alone compared to 14 mg Compound A IV alone
[11] = Geom Mean, dose-normalized to 112 mg
[12] = Geom Mean, 112 mg Compound A oral alone
[13] = Mean, dose-normalized to 112 mg
[14] = Mean, 112 mg Compound A oral alone

For `COC(=O)N1CCCC(NS(C)(=O)=O)C1COC1CCC(c2ccccc2)CC1` (stereo not shown) [methyl 3-((methylsulfonyl)amino)-2-(((4-phenylcyclohexyl)oxy)methyl)piperidine-1-carboxylate], the improving wakefulness [1] is listed as “significant effects”, the reducing cataplexy-like symptoms [1] is listed as “significant effects” and the wakefulness [2] is listed as “promoted wakefulness”. For the same compound, the wakefulness [3] was “promoted wakefulness” and the safety and tolerability [4] was “safe and well-tolerated”.

For `Cc1ncc2n1-c1ccc(Cl)cc1C(c1ccccc1F)=NC2` [midazolam], the “midazolam Cmax, increase with cobicistat” value [5] was “approximately 5 fold”.

For `COC(=O)N1CCC[C@H](NS(C)(=O)=O)[C@@H]1CO[C@H]1CC[C@@H](c2ccccc2)CC1` [Compound A, methyl (2R,3S)-3-((methylsulfonyl)amino)-2-(((cis-4-phenylcyclohexyl)oxy)methyl)piperidine-1-carboxylate], the “mean t1/2z” value ([6]; 14 mg Compound A IV alone) was 3.7 h, the “mean t1/2z” value ([6]; 14 mg Compound A oral + QD 150 mg cobicistat) was ~ 8 hours and the “geometric mean dose-normalized AUC∞, increase over IV” value [6, 8] was 2.8 fold. The “geometric mean dose-normalized Cmax, increase over IV” value [6, 8] was 7.9 fold, the “increase of geometric LSM AUClast” value [6, 9] was roughly 109 fold and the “increase of geometric LSM AUC∞” value [6, 9] was roughly 109 fold. For the same compound, the “increase of geometric LSM Cmax” value [6, 9] was “approximately 50 fold”, the “dose-normalized Cmax, AUCinf and AUClast of plasma Compound A, Day 12 versus Day 3” value ([6]; 14 mg oral + MD 150 mg cobicistat versus 112 mg oral alone) was “much higher” and the “mean t1/2z” value ([6]; 112 mg Compound A oral alone) was 4.9 h. The “geometric mean dose-normalized AUC∞, lower than IV” value [6, 10] was roughly 97%, the “geometric mean dose-normalized Cmax, lower than IV” value [6, 10] was “approximately 84%” and the “DNAUCinf112 (Day 12)” value [6, 11] was 7623 ng*hr/mL/112 mg Compound A. For the same compound, the “DNAUClast112 (Day 12)” value [6, 11] was 7504 ng*hr/mL/112 mg Compound A, the “DNCmax112 (Day 12)” value [6, 11] was 2253 ng/mL/112 mg Compound A and the “DNAUCi nf 112Ratio (Day 12/Day 3)” value ([6]; Geom Mean) was 10942%. For the same compound, the “DNAUCla st 112Ratio (Day 12/Day 3)” value ([6]; Geom Mean) was 10871%, the “DNCma x 112Ratio (Day 12/Day 3)” value ([6]; Geom Mean) was 5028% and the “DNAUCinf112 (Day 3)” value [6, 12] was 69.67 ng*hr/mL/112 mg Compound A. For the same compound, the “DNAUClast112 (Day 3)” value [6, 12] was 69.02 ng*hr/mL/112 mg Compound A, the “DNCmax112 (Day 3)” value [6, 12] was 44.81 ng/mL/112 mg Compound A and the “DNAUCinf112 (Day 12)” value [6, 13] was 8448 ng*hr/mL/112 mg Compound A. The “DNAUClast112 (Day 12)” value [6, 13] was 8231 ng*hr/mL/112 mg Compound A, the “DNCmax112 (Day 12)” value ([6]; Mean, dose-normalized to 112 mg, plasma, healthy subjects) was 2335 ng/mL/112 mg Compound A and the “DNAUCi nf 112Ratio (Day 12/Day 3)” value ([6]; Mean) was 14349%. The “DNAUCla st 112Ratio (Day 12/Day 3)” value ([6]; Mean) was 14385%, the “DNCma x 112Ratio (Day 12/Day 3)” value ([6]; Mean) was 8290% and the “DNAUCinf112 (Day 3)” value [6, 14] was 94.59 ng*hr/mL/112 mg Compound A. The “DNAUClast112 (Day 3)” value [6, 14] was 94.21 ng*hr/mL/112 mg Compound A, the “DNCmax112 (Day 3)” value ([6]; Mean, 112 mg Compound A oral alone, plasma, healthy subjects) was 66.35 ng/mL/112 mg Compound A and the “systemic exposures of Compound A administered orally, effect of cobicistat” value ([6]; via potent CYP3A inhibition, healthy adult subjects) was “significantly increased”. For the same compound, the safety and tolerability [7] was “generally safe and well tolerated”.
